Organism: Rattus norvegicus
Test: DrugMatrix - Regimen: Daily Repeat
Type: toxicity, organism-based, Sprague-Dawley
Parameters: regimen Daily Repeat, gender Male, age 6-8 weeks
Details: in vivo, po, route oral GAVAGE, vehicle 100 % SALINE; for ABSOLUTE BASOPHIL / ABSOLUTE EOSINOPHIL / ABSOLUTE LYMPHOCYTE / ABSOLUTE MONOCYTE / ABSOLUTE SEGMENTED NEUTROPHIL / BASOPHIL / EOSINOPHIL / ERYTHROCYTE COUNT / HEMATOCRIT / HEMOGLOBIN / LEUKOCYTE COUNT / LYMPHOCYTE / MEAN CORPUSCULAR HEMOGLOBIN / MEAN CORPUSCULAR HEMOGLOBIN CONCENTRATION / MEAN CORPUSCULAR VOLUME / MONOCYTE / NEUTROPHIL / NUCLEATED RED BLOOD CELLS / PLATELET COUNT: tissue Blood; for ALANINE AMINOTRANSFERASE / ALBUMIN / ALKALINE PHOSPHATASE / ASPARTATE AMINOTRANSFERASE / BLOOD UREA NITROGEN / CARBON DIOXIDE / CHLORIDE / CHOLESTEROL / CREATINE PHOSPHOKINASE / CREATININE / GLUCOSE / LACTATE DEHYDROGENASE / LIPASE / PHOSPHORUS / POTASSIUM / SODIUM / TOTAL BILIRUBIN / TOTAL PROTEIN / URIC ACID: tissue Plasma
[1] = 46 mg/kg, 120 h, dose level Low, time 5 day
[2] = 360 mg/kg, 72 h, dose level High, time 3 day
[3] = 360 mg/kg, 120 h, dose level High, time 5 day

COc1ccc2cc(CC(=O)O)ccc2c1
ABSOLUTE BASOPHIL [1]: 0 CELLS/uL
ABSOLUTE EOSINOPHIL [1]: 93.33 CELLS/uL
ABSOLUTE LYMPHOCYTE [1]: 9837 CELLS/uL
ABSOLUTE MONOCYTE [1]: 271.67 CELLS/uL
ABSOLUTE SEGMENTED NEUTROPHIL [1]: 1398 CELLS/uL
BASOPHIL [1]: 0%
EOSINOPHIL [1]: 0.67%
ERYTHROCYTE COUNT [1]: 5.65 x10E6/uL
HEMATOCRIT [1]: 35.2%
HEMOGLOBIN [1]: 13.83 G/DL
LEUKOCYTE COUNT [1]: 11.6 x10E3/uL
LYMPHOCYTE [1]: 86%
MEAN CORPUSCULAR HEMOGLOBIN [1]: 24.5 pg
MEAN CORPUSCULAR HEMOGLOBIN CONCENTRATION [1]: 39.33 G/DL
MEAN CORPUSCULAR VOLUME [1]: 62.23 fL
MONOCYTE [1]: 2.33%
NEUTROPHIL [1]: 11%
NUCLEATED RED BLOOD CELLS [1]: 0 /100WBC
PLATELET COUNT [1]: 1138.33 x10E3/uL
ALANINE AMINOTRANSFERASE [1]: 39.67 u/L
ALBUMIN [1]: 3.93 G/DL
ALKALINE PHOSPHATASE [1]: 339 u/L
ASPARTATE AMINOTRANSFERASE [1]: 71 u/L
BLOOD UREA NITROGEN [1]: 16.67 mg/dL
CARBON DIOXIDE [1]: 37.33 mmol/L
CHLORIDE [1]: 100 MEQ/L
CHOLESTEROL [1]: 65.67 mg/dL
CREATINE PHOSPHOKINASE [1]: 168 u/L
CREATININE [1]: 0.25 mg/dL
GLUCOSE [1]: 144.33 mg/dL
LACTATE DEHYDROGENASE [1]: 125.67 u/L
LIPASE [1]: 9.33 u/L
PHOSPHORUS [1]: 9.93 mg/dL
POTASSIUM [1]: 6.48 MEQ/L
SODIUM [1]: 142.9 MEQ/L
TOTAL BILIRUBIN [1]: 0.2 mg/dL
TOTAL PROTEIN [1]: 5.57 G/DL
URIC ACID [1]: 1.23 mg/dL
ABSOLUTE BASOPHIL [2]: 0 CELLS/uL
ABSOLUTE EOSINOPHIL [2]: 13.33 CELLS/uL
ABSOLUTE LYMPHOCYTE [2]: 7596.67 CELLS/uL
ABSOLUTE MONOCYTE [2]: 249.33 CELLS/uL
ABSOLUTE SEGMENTED NEUTROPHIL [2]: 2774 CELLS/uL
BASOPHIL [2]: 0%
EOSINOPHIL [2]: 0.33%
ERYTHROCYTE COUNT [2]: 3.71 x10E6/uL
HEMATOCRIT [2]: 23.17%
HEMOGLOBIN [2]: 9.43 G/DL
LEUKOCYTE COUNT [2]: 10.63 x10E3/uL
LYMPHOCYTE [2]: 66.67%
MEAN CORPUSCULAR HEMOGLOBIN [2]: 25.93 pg
MEAN CORPUSCULAR HEMOGLOBIN CONCENTRATION [2]: 41.23 G/DL
MEAN CORPUSCULAR VOLUME [2]: 62.9 fL
MONOCYTE [2]: 1.67%
NEUTROPHIL [2]: 31.33%
NUCLEATED RED BLOOD CELLS [2]: 1.67 /100WBC
PLATELET COUNT [2]: 943 x10E3/uL
ALANINE AMINOTRANSFERASE [2]: 45.33 u/L
ALBUMIN [2]: 2.4 G/DL
ALKALINE PHOSPHATASE [2]: 253 u/L
ASPARTATE AMINOTRANSFERASE [2]: 212.33 u/L
BLOOD UREA NITROGEN [2]: 22.33 mg/dL
CARBON DIOXIDE [2]: 20.33 mmol/L
CHLORIDE [2]: 99.67 MEQ/L
CHOLESTEROL [2]: 66.67 mg/dL
CREATINE PHOSPHOKINASE [2]: 1447.67 u/L
CREATININE [2]: 0.17 mg/dL
GLUCOSE [2]: 135.67 mg/dL
LACTATE DEHYDROGENASE [2]: 735.67 u/L
LIPASE [2]: 8.67 u/L
PHOSPHORUS [2]: 17 mg/dL
POTASSIUM [2]: 8 MEQ/L
SODIUM [2]: 141 MEQ/L
TOTAL BILIRUBIN [2]: 0.17 mg/dL
TOTAL PROTEIN [2]: 5.13 G/DL
URIC ACID [2]: 3.87 mg/dL
ABSOLUTE BASOPHIL [3]: 0 CELLS/uL
ABSOLUTE EOSINOPHIL [3]: 0 CELLS/uL
ABSOLUTE LYMPHOCYTE [3]: 14145 CELLS/uL
ABSOLUTE MONOCYTE [3]: 225 CELLS/uL
ABSOLUTE SEGMENTED NEUTROPHIL [3]: 8130 CELLS/uL
BASOPHIL [3]: 0%
EOSINOPHIL [3]: 0%
ERYTHROCYTE COUNT [3]: 4.19 x10E6/uL
HEMATOCRIT [3]: 26.25%
HEMOGLOBIN [3]: 10.55 G/DL
LEUKOCYTE COUNT [3]: 22.5 x10E3/uL
LYMPHOCYTE [3]: 62%
MEAN CORPUSCULAR HEMOGLOBIN [3]: 25.2 pg
MEAN CORPUSCULAR HEMOGLOBIN CONCENTRATION [3]: 40.2 G/DL
MEAN CORPUSCULAR VOLUME [3]: 62.7 fL
MONOCYTE [3]: 1%
NEUTROPHIL [3]: 37%
NUCLEATED RED BLOOD CELLS [3]: 0 /100WBC
PLATELET COUNT [3]: 2123.5 x10E3/uL
ALANINE AMINOTRANSFERASE [3]: 16.5 u/L
ALBUMIN [3]: 2.7 G/DL
ALKALINE PHOSPHATASE [3]: 153.5 u/L
ASPARTATE AMINOTRANSFERASE [3]: 50 u/L
BLOOD UREA NITROGEN [3]: 14 mg/dL
CARBON DIOXIDE [3]: 28 mmol/L
CHLORIDE [3]: 103 MEQ/L
CHOLESTEROL [3]: 71.5 mg/dL
CREATINE PHOSPHOKINASE [3]: 441 u/L
CREATININE [3]: 0.14 mg/dL
GLUCOSE [3]: 156.5 mg/dL
LACTATE DEHYDROGENASE [3]: 371.5 u/L
LIPASE [3]: 8 u/L
PHOSPHORUS [3]: 10.3 mg/dL
POTASSIUM [3]: 5.81 MEQ/L
SODIUM [3]: 139.25 MEQ/L
TOTAL BILIRUBIN [3]: 0.1 mg/dL
TOTAL PROTEIN [3]: 4.85 G/DL
URIC ACID [3]: 2.15 mg/dL
